# Counter-ions that a name gives are not always drawn.
# Target: T1, human B1 (Homo sapiens, UniProt P46663)
# T1 construct: host or cells: CHO-K1
# T1 sequence (P46663 1-353): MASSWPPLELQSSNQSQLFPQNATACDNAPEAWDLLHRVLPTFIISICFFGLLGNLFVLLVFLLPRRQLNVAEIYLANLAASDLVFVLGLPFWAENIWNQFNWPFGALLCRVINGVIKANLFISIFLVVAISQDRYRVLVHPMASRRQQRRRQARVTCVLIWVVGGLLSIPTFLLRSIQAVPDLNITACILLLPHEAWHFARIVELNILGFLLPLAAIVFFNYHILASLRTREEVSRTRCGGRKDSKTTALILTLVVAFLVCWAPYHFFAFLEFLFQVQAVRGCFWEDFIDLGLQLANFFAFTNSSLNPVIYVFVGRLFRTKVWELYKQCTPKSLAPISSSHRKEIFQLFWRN
# Assay: Calcium flux assay for Bradykinin B1 antagonist, CHO-K1 cell line expressing human B1
# Assay type: cell-based
# Conditions: CHO-K1 cells expressing human B1, agonist Lys-(Des-Arg)-Bradykinin, read-out: Potency (IC50 value against human B1)
# Summary of the method: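 Inhibition of B1 agonist-evoked intracellular Ca2+ rise was followed by continuous fluorescence at 538 nm, with integrated, background-normalized signals plotted versus log compound concentration. Test compounds (eight 10-fold dilutions, triplicate, 1% DMSO final) were added 30 min at 25° C beforehand to Fluo-4AM-loaded human B1 CHO-K1 cells in pH 7.4 assay buffer.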
row,SMILES,IC50 [nM]
1,"COc1cc(C)c(S(=O)(=O)N(Cc2nc(C(=O)N3CC4CCN(C5CN6CCC5CC6)CC4C3)co2)C2CC2)c(C)c1 (stereo not shown) [Ex 207, N-[(4-{[5-(1-Azabicyclo[2.2.2]oct-3-yl)octahydro-2H-pyrrolo[3,4-c]pyridin-2-yl]carbonyl}-1,3-oxazol-2-yl)methyl]-N-cyclopropyl-4-methoxy-2,6-dimethylbenzenesulfonamide trifluoroacetate]",< 10
2,"COc1cc(C)c(S(=O)(=O)N(C)Cc2cc(C(=O)N3CCN(Cc4ccncc4)CC3)co2)c(C)c1 [Ex 34, 4-methoxy-N,2,6-trimethyl-N-[(4-{[4-(pyridin-4-ylmethyl)piperazin-1-yl]carbonyl}furan-2-yl)methyl]benzenesulfonamide]",100 to 1000
3,"COc1cc(C)c(S(=O)(=O)N(Cc2cc(C(=O)N(C)Cc3ccc(CN4CCC(N(C)C)C4)cc3)co2)C2CC2)c(C)c1 (stereo not shown) [Ex 140, 5-({Cyclopropyl[(4-methoxy-2,6-dimethylphenyl)sulfonyl]amino}methyl)-N-(4-{[3-(dimethylamino)pyrrolidin-1-yl]methyl}benzyl)-N-methylfuran-3-carboxamide]",10 to 100
4,"COc1cc(C)c(S(=O)(=O)N(C)Cc2nc(C(=O)NCCc3ccc(C4=NCCN4)cc3)co2)c(C)c1 [Ex 67, N-{2-[4-(4,5-dihydro-1H-imidazol-2-yl)phenyl]ethyl}-2-({[(4-methoxy-2,6-dimethylphenyl)sulfonyl](methyl)amino}methyl)-1,3-oxazole-4-carboxamide]",< 10
5,"COc1cc(C)c(S(=O)(=O)N(Cc2noc(C(=O)N3CCN(C4CCN(C)CC4)CC3)n2)C2CC2)c(C)c1 [Ex 311, N-Cyclopropyl-4-methoxy-2,6-dimethyl-N-[(5-{[4-(1-methylpiperidin-4-yl)piperazin-1-yl]carbonyl}-1,2,4-oxadiazol-3-yl)methyl]benzenesulfonamide]",< 10

# More lines, now with the values ahead:
row,IC50 [nM],SMILES
1,< 10,"COc1cc(C)c(S(=O)(=O)N(Cc2nc(C(=O)N(C)Cc3nc(CN4CCCC4)cs3)co2)C2CC2)c(C)c1 [Ex 200, 2-({Cyclopropyl[(4-methoxy-2,6-dimethylphenyl)sulfonyl]amino}methyl)-N-methyl-N-{[4-(pyrrolidin-1-ylmethyl)-1,3-thiazol-2-yl]methyl}-1,3-oxazole-4-carboxamide trifluoroacetate]"
2,100 to 1000,"COc1cc(C)c(S(=O)(=O)N(C)Cc2nnc(C(=O)N3CCN(CC4CCN(C(C)C)CC4)CC3)o2)c(C)c1 [Ex 264, 4-Methoxy-N,2,6-trimethyl-N-({5-[(4-{[1-(1-methylethyl)piperidin-4-yl]methyl}piperazin-1-yl)carbonyl]-1,3,4-oxadiazol-2-yl}methyl)benzenesulfonamide trifluoroacetate]"
3,100 to 1000,"COc1cc(C)c(S(=O)(=O)N(C)Cc2cc(C(=O)N(C)Cc3ccc(CN4CC(OC)C4)cc3)co2)c(C)c1 [Ex 133, N-{4-[(3-Methoxyazetidin-1-yl)methyl]benzyl}-5-({[(4-methoxy-2,6-dimethylphenyl)sulfonyl](methyl)amino}methyl)-N-methylfuran-3-carboxamide]"
4,100 to 1000,"CN(CCc1ccc(C2=NCCN2)cc1)C(=O)c1coc(CN(C)S(=O)(=O)c2ccc(Cl)cc2Cl)c1 [Ex 22, 5-({[(2,4-dichlorophenyl)sulfonyl](methyl)amino}methyl)-N-{2-[4-(4,5-dihydro-1H-imidazol-2-yl)phenyl]ethyl}-N-methylfuran-3-carboxamide]"
5,10 to 100,"COc1cc(C)c(S(=O)(=O)N(Cc2nc(C(=O)N3CCC(O)(COCCN(C)C)CC3)co2)C2CC2)c(C)c1 [Ex 246, N-Cyclopropyl-N-({4-[(4-{[2-(dimethylamino)ethoxy]methyl}-4-hydroxypiperidin-1-yl)carbonyl]-1,3-oxazol-2-yl}methyl)-4-methoxy-2,6-dimethylbenzenesulfonamide trifluoroacetate]"

# From patent US8623859B2, “Bradykinin B1 antagonists” (Evotec AG, priority 2008, dated 2014)
